This is an account of results in patent publication US8318641B2, “Systems and methods for the detection of biomarkers” (priority 2010, dated 2012).

One experiment addresses T1, α-amylase (Homo sapiens, UniProt P0DUB6).
T1 sequence (P0DUB6 16-511): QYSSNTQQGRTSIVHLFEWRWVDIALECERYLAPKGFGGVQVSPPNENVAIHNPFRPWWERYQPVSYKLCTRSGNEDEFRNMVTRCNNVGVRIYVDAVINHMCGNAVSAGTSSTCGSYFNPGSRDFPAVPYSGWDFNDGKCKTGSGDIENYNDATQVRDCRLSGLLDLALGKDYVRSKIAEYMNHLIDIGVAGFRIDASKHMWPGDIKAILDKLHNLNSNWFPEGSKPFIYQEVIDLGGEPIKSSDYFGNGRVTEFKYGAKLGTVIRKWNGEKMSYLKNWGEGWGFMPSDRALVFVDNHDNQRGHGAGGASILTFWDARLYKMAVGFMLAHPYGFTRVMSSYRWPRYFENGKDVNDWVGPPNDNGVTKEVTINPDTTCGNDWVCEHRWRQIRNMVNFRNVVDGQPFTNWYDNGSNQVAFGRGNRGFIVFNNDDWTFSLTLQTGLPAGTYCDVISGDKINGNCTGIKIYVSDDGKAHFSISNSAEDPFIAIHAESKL
The experiment in a line: α-Amylase inhibition saliva screening (2-chloro-p-nitrophenol-maltotriose substrate, absorbance 405 nm). The format is biochemical. An excerpt:
Further details of these five compounds may also be seen in Table 4.

The next experiment deals with peroxidase. The experiment in a line: Peroxidase assay in saliva (Amplex Red). It counts as biochemical. The following applies: test compound prepared at 500 ppm, 30 minutes, FIGS. 26-29. On the procedure:
To determine the effect of various GRAS compounds as inhibitors of peroxidase activity, a standard assay using Amplex® Red (Life Technologies), which releases a fluorescent oxidation product.
The test compounds, such as GRAS materials or cocktails of same, were prepared at a concentration of 500 ppm in distilled water. For the assay, 50 μl samples of test compounds were mixed with 20-30 μl of saliva (either “pooled” or “unpooled”) prior to the addition of Amplex® Red. […] Reactions were allowed to run for 30 minutes during these assays.

The target of another experiment is T2, Lysozyme (Homo sapiens, UniProt P61626).
T2 sequence (P61626 19-148): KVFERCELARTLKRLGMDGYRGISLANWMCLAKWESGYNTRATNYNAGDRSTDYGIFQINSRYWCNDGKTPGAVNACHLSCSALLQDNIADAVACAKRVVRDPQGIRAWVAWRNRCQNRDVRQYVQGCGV
The experiment in a line: Lysozyme inhibition saliva screening (fluorescein-labeled Micrococcus lysodeikticus). The format is biochemical. The following applies: 100% saliva samples (data not shown). The source says: Further details of these five compounds may also be seen in Table 5.

Another experiment concerns protease. The following applies: cited from earlier work.

For the molecule Aluminum sulfate hydrate [CDI-34], the entries for the “Ave (absorbance at 405 nm)” value at α-amylase (Time 0 min), on α-amylase (Time 5 min) and at α-amylase (Time 15 min) were 0.40, 0.50 and 0.56, respectively.

`COc1ccc(O)c(C(C)(C)C)c1` [CDI-039, 3-tert--butyl-hydroxyanisole]: the peroxidase inhibition entry in the experiment with peroxidase was “significant peroxidase inhibition capabilities”.

Regarding “Aluminum potassium sulfate dodecahydrate [CDI-42]”, the “Ave (absorbance at 405 nm)” value on α-amylase (Time 0 min) amounted to 0.92. Moreover, in the experiment on peroxidase, the peroxidase inhibition entry was “significant peroxidase inhibition capabilities”.

With `Cn1c(=O)c2c(ncn2C)n(C)c1=O` [CDI #33, Caffeine], in the experiment on peroxidase, the peroxidase inhibition entry is “significant peroxidase inhibition capabilities”.

For `CC(=O)O` [CDI-047, Acetic acid], the Lysozyme inhibition entry on Lysozyme is listed as “shown to inhibit Lysozyme”.

B1: Soybeans: primary soybean protease inhibitor, 20.7-22.3 kDa (protein, UniProt P01070 25-205, looked up)
Trypsin inhibitor A: DFVLDNEGNPLENGGTYYILSDITAFGGIRAAPTGNERCPLTVVQSRNELDKGIGTIISSPYRIRFIAEGHPLSLKFDSFAVIMLCVGIPTEWSVVEDLPEGPAVKIGENKDAMDGWFRLERVSDDEFNNYKLVFCPQQAEDDKCGDIGISIDHDDGTRRLVVSKNKPLVVQFQKLDKESL
Consider B1, for which the Inhibitory power with protease is given as 1.2 times times weight.
